Converted amounts (≈) assume the structure as drawn. “Also recorded” adds a separate entry of the source. Where a SMILES comes first, the peptide text is derived from it.
What was measured:
tested pathogens = settings: reported for the parent peptide; cited from earlier work
[1] = tested on: Acinetobacter baumannii ATCC19606; assay: MIC determination (broth microdilution); format: cell-based; settings: MHB, 5 × 10^5 CFU/mL, peptide 0.625 to 40 μg/mL, 37 °C, 18 h, OD 630 nm
Procedure: (§1) The antimicrobial activities of the peptides were tested against S. aureus ATCC29213, E. faecalis ATCC29212, E. coli ATCC25922, K. pneumoniae ATCC700603, P. aeruginosa ATCC27853 and A. baumannii ATCC19606. All these strains were purchased from the China Center of Type Culture Collection (CCTCC).
(§2) The antimicrobial activities of the peptides were determined as previously described. Briefly, the bacteria were incubated at 37 °C and 150 rpm until the log phase of growth. Next, the bacteria were diluted with Mueller-Hinton broth (MHB, Oxoid, UK) and prepared in a clear round-bottom polypropylene 96-well microtiter plate to achieve a final concentration of 5 × 10^5 colony-forming unit (CFU)/mL. Twofold serial dilutions of the peptides were added into each well with the concentrations ranging from 0.625 to 40 μg/mL. The mixed peptides and cells were cultured at 37 °C and 150 rpm for 18 h, and the optical density (OD) was measured at 630 nm. The minimum inhibitory concentration was defined as the lowest peptide concentration with no detectable bacterial growth.

[2] = tested on: Enterococcus faecalis ATCC29212; assay: MIC determination (broth microdilution); format: cell-based; settings: MHB, 5 × 10^5 CFU/mL, peptide 0.625 to 40 μg/mL, 37 °C, 18 h, OD 630 nm
Procedure: as §1, §2

[3] = tested on: Escherichia coli ATCC25922; assay: MIC determination (broth microdilution); format: cell-based; settings: MHB, 5 × 10^5 CFU/mL, peptide 0.625 to 40 μg/mL, 37 °C, 18 h, OD 630 nm
Procedure: as §1, §2

[4] = tested on: Klebsiella pneumoniae ATCC700603; assay: MIC determination (broth microdilution); format: cell-based; settings: MHB, 5 × 10^5 CFU/mL, peptide 0.625 to 40 μg/mL, 37 °C, 18 h, OD 630 nm
Procedure: as §1, §2

[5] = tested on: Pseudomonas aeruginosa ATCC27853; assay: MIC determination (broth microdilution); format: cell-based; settings: MHB, 5 × 10^5 CFU/mL, peptide 0.625 to 40 μg/mL, 37 °C, 18 h, OD 630 nm
Procedure: as §1, §2

[6] = tested on: Staphylococcus aureus ATCC29213; assay: MIC determination (broth microdilution); format: cell-based; settings: MHB, 5 × 10^5 CFU/mL, peptide 0.625 to 40 μg/mL, 37 °C, 18 h, OD 630 nm
Procedure: as §1, §2

human red blood cells = assay: Hemolytic activity determination; format: cell-based; settings: 2% (v/v) hRBCs, peptide 12.5-200 μg/mL, 37 °C, 1 h, absorbance 540 nm; 1% Triton X-100 = 100%; three independent experiments
Procedure: The hemolytic activities of the peptides were determined against human red blood cells (hRBCs). Briefly, fresh hRBCs anticoagulated with sodium citrate were rinsed with 0.9% sodium chloride by centrifugation (1000× g, 5 min). Then, the cells were diluted to a final concentration of 2% (v/v) and prepared in a clear 96-well polypropylene microtiter plate. Next, the samples were mixed with a series of concentrations of the peptide (12.5, 25, 50, 100 and 200 μg/mL) and incubated at 37 °C for 1 h. After that, the samples were centrifuged (2000× g, 10 min), and the absorbances of the supernatants were measured at 540 nm to evaluate the release of hemoglobin. HRBCs treated with 1% Triton X-100 or 0.9% sodium chloride were taken as 100% and 0% hemolysis, respectively.

[7] = tested on: mouse fibroblast cell line L929; assay: Cytotoxicity determination (CCK-8); format: cell-based; settings: L929 cells, peptide 0-100 μg/mL, 24 h, CCK-8, OD 450 nm; three independent experiments
Procedure: To determine the cytotoxicity of the peptide, the mouse fibroblast cell L929 (8000 cells per well) were seeded in a 96-well plate and incubated for 24 h in Dulbecco’s modified Eagle’s medium (DMEM, Gibco, USA) supplemented with 10% fetal bovine serum (FBS, Gibco, USA), 2 mM/L L-glutamine, 100 U/mL penicillin and […] streptomycin (1% P/S, Invitrogen, USA) at 37 °C in a 5% CO2 atmosphere. Then, a series of concentrations of the peptide (0, 5, 10, 20, 40, 60, 80 and 100 μg/mL) were added into each well and incubation was performed for 24 h. After that, the cytotoxicity of the peptide was measured with the CCK8 cell counting kit (Yeasen, Shanghai, China) by measuring the optical density at 450 nm.

[8] = tested on: Gram-positive and Gram-negative bacteria (all bacterial strains tested); assay: MIC determination, summary over all tested bacterial strains; format: cell-based; settings: summary over the six strains tested; MHB, 37 °C, 18 h, peptide 0.625 to 40 μg/mL
Procedure: as §1, §2

G-VWDWIKKTAGKIWNSEPVKALKSQALNAAKNFVAEKIGATPS [Smp43]
antimicrobial activity (tested pathogens): poor antimicrobial activities; also recorded: poor antimicrobial activity

CC[C@H](C)[C@H](NC(=O)[C@H](CCCCN)NC(=O)CNC(=O)[C@H](C)NC(=O)[C@@H](NC(=O)[C@H](CCCCN)NC(=O)[C@H](CCCCN)NC(=O)[C@@H](NC(=O)[C@@H](N)Cc1c[nH]c2ccccc12)[C@@H](C)CC)[C@@H](C)O)C(=O)N[C@@H](Cc1c[nH]c2ccccc12)C(=O)N[C@@H](CC(N)=O)C(=O)N[C@@H](CO)C(=O)N[C@@H](CCC(=O)O)C(=O)N1CCC[C@H]1C(N)=O [Smp43(5-18)] (H-WIKKTAGKIWNSEP-NH2)
MIC [1]: > 40 µg/mL
MIC [2]: > 40 µg/mL
MIC [3]: > 40 µg/mL
MIC [4]: > 40 µg/mL
MIC [5]: > 40 µg/mL
MIC [6]: > 40 µg/mL
HC10: the concentration of the peptide that causes 10% hemolysis of human red blood cells (human red blood cells): > 200 µg/mL

CC[C@H](C)[C@H](N)C(=O)N[C@@H](Cc1c[nH]c2ccccc12)C(=O)N[C@@H](CC(N)=O)C(=O)N[C@@H](CO)C(=O)N[C@@H](CCC(=O)O)C(=O)N1CCC[C@H]1C(=O)N[C@H](C(=O)N[C@@H](CCCCN)C(=O)N[C@@H](C)C(=O)N[C@@H](CC(C)C)C(=O)N[C@@H](CCCCN)C(=O)N[C@@H](CO)C(=O)N[C@@H](CCC(N)=O)C(=O)N[C@@H](C)C(N)=O)C(C)C [Smp43(13-26)] (H-IWNSEPVKALKSQA-NH2)
MIC [1]: > 40 µg/mL
MIC [2]: > 40 µg/mL
MIC [3]: > 40 µg/mL
MIC [4]: > 40 µg/mL
MIC [5]: > 40 µg/mL
MIC [6]: > 40 µg/mL
HC10: the concentration of the peptide that causes 10% hemolysis of human red blood cells (human red blood cells): > 200 µg/mL

CC[C@H](C)[C@H](NC(=O)[C@H](CCCCN)NC(=O)CNC(=O)[C@H](C)NC(=O)[C@@H](NC(=O)[C@H](CCCCN)NC(=O)[C@H](CCCCN)NC(=O)[C@@H](NC(=O)[C@H](Cc1c[nH]c2ccccc12)NC(=O)[C@H](CC(=O)O)NC(=O)[C@H](Cc1c[nH]c2ccccc12)NC(=O)[C@@H](NC(=O)CN)C(C)C)[C@@H](C)CC)[C@@H](C)O)C(=O)N[C@@H](Cc1c[nH]c2ccccc12)C(N)=O [Smp43(1-14)] (H-GVWDWIKKTAGKIW-NH2)
MIC [1]: 5 µg/mL (≈ 2.96 µM)
MIC [2]: 10 µg/mL (≈ 5.93 µM)
MIC [3]: 10 µg/mL (≈ 5.93 µM)
MIC [4]: 10 µg/mL (≈ 5.93 µM)
MIC [5]: 10 µg/mL (≈ 5.93 µM)
MIC [6]: 5 µg/mL (≈ 2.96 µM)
HC10: the concentration of the peptide that causes 10% hemolysis of human red blood cells (human red blood cells): 75 µg/mL
IC10: the concentration of the peptide that causes 10% inhibition of cell growth [7]: 92 µg/mL
MICs against the tested Gram-positive and Gram-negative bacterial species [8]: 5 to 10 µg/mL

CC[C@H](C)[C@H](NC(=O)[C@H](CCCCN)NC(=O)CN)C(=O)N[C@@H](Cc1c[nH]c2ccccc12)C(=O)N[C@@H](CC(N)=O)C(=O)N[C@@H](CO)C(=O)N[C@@H](CCC(=O)O)C(=O)N1CCC[C@H]1C(=O)N[C@H](C(=O)N[C@@H](CCCCN)C(=O)N[C@@H](C)C(=O)N[C@@H](CC(C)C)C(=O)N[C@@H](CCCCN)C(=O)N[C@@H](CO)C(N)=O)C(C)C [Smp43(11-24)] (H-GKIWNSEPVKALKS-NH2)
MIC [1]: > 40 µg/mL
MIC [2]: > 40 µg/mL
MIC [3]: > 40 µg/mL
MIC [4]: > 40 µg/mL
MIC [5]: > 40 µg/mL
MIC [6]: > 40 µg/mL
HC10: the concentration of the peptide that causes 10% hemolysis of human red blood cells (human red blood cells): > 200 µg/mL
